Common to all, as to type: cell-based
One assay has as its system A. baumannii NCTC 13420. Kind of assay: Antibacterial assay, MIC/MBC by broth microdilution (CLSI). Summed up: (§1)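 CLSI broth microdilution in cation-adjusted Mueller Hinton broth, log-phase inoculum diluted to 7.5×10^5 CFU/mL before 1:1 mixing with two-fold compound dilutions, triplicates, 18 h at 37 °C static. MIC: >90% inhibition by OD600; MBC: lowest concentration giving no colonies after 5 μL spotted on agar, 18 h, 37 °C.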
For orientation: Broth dilution looks for growth in wells or tubes with falling amounts of substance.

The test system of a further assay is E. cloacae NCTC 13405. Described as above. To be noted: for MBC (in brackets) / MIC: E. cloacae NCTC 13405; for MIC: repeated twice, a/b = both values. Summed up: as §1
The next assay concerns E. coli ATCC 25922. Described as above. The settings on record: for MIC: repeated twice, a/b = both values. Summed up: as §1
In assay [1] the test system is K. pneumoniae ATCC 700603. The assay is described as above. Summed up: as §1
For a further assay, the system named is P. aeruginosa NCTC 13437. Described as above. The settings on record: for MBC (in brackets) / MIC: P. aeruginosa NCTC 13437; for MIC: repeated twice, a/b = both values. Summed up: as §1
A further assay concerns S. aureus JE2 (USA300). Described as above. To be noted: for MBC (in brackets) / MIC: S. aureus JE2 (USA300); for MIC: repeated twice, a/b = both values. Summed up: as §1
A further assay has as its system A549 cells. In words: Cytotoxicity assay (resazurin). The settings on record: 20 h, mean±S.E.M. from two independent experiments. In a few lines: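 A549 cells (5×10^3/well) were exposed to two-fold serial dilutions from 128 μg/mL (compounds 9-17 from 1,280 μg/mL) for 20 h at 37 °C. Resazurin was then added for 3 h and fluorescence read at ex 560/em 590 nm. IC50 came from curve fitting of inhibition vs log concentration; triplicates, repeated twice.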
In general terms: The colour change of resazurin is a common sign of viable cells or microbes.

The next assay relates to E. faecalis ATCC 700221. Kind of assay: Antibacterial assay, MIC/MBC by broth microdilution (CLSI). The settings on record: for MIC: repeated twice, a/b = both values. Summed up: as §1
The mark [2] stands for this setting: A. baumannii NCTC 13420, repeated twice, a/b = both values.
The mark [3] stands for this setting: K. pneumoniae ATCC 700603, repeated twice, a/b = both values.

As to “(2,3,4,6-Tetra-O-acetyl-1-thio-β-D-glucopyranosato) (triethylphosphine) gold(I) [Compound 1, reference compound]”, the values for the MIC/MBC (against A. baumannii NCTC 13420 (A. baumannii); in assay [1] (K. pneumoniae)) were 47 µM and 377 µM, respectively. The “MBC (in brackets)” value is given as 47(47) μM/mL in the assay with A. baumannii NCTC 13420 (A. baumannii NCTC 13420); 189 (189) μM/mL against E. cloacae NCTC 13405; 24 (24) μM/mL in the assay on E. coli ATCC 25922; 377 (377) μM/mL in assay [1] (K. pneumoniae ATCC 700603); 377 (377) μM/mL in the assay with P. aeruginosa NCTC 13437; “(0.09) μM/mL” in the assay with S. aureus JE2 (USA300). Moreover, the MIC is given as 47(47) μM/mL in the assay on A. baumannii NCTC 13420 (setting [2]); 189 (189) μM/mL in the assay on E. cloacae NCTC 13405; 24 (24) μM/mL in the assay on E. coli ATCC 25922; 377 (377) μM/mL in assay [1] (setting [3]); 377 (377) μM/mL in the assay with P. aeruginosa NCTC 13437; 0.04 μM/mL with S. aureus JE2 (USA300). The “IC50 against A549 cells” value in the assay on A549 cells is 7.7 ± 1.3 µg/mL.

Regarding “(2-Aminobenzenethiolato)(triethylphosphine) gold(I) [Compound 19]”, the “MBC (in brackets)” value in the assay on A. baumannii NCTC 13420 (A. baumannii NCTC 13420) is on record as 18 μM/mL; in the assay with E. cloacae NCTC 13405, “(36/73)”; in the assay on E. coli ATCC 25922, 36 (36) μM/mL; against E. faecalis ATCC 700221 it was “(0.1) μM/mL”; in assay [1] (K. pneumoniae ATCC 700603), 146 (146) μM/mL; in the assay on P. aeruginosa NCTC 13437, 291 (291) μM/mL. Also, in the assay with S. aureus JE2 (USA300), the “MBC (in brackets)” value is given as “(0.6) μM/mL”. Also, the MIC in the assay on A. baumannii NCTC 13420 (setting [2]) is given as 18/36; in the assay on E. cloacae NCTC 13405, 18/73; against E. coli ATCC 25922 it was 36 (36) μM/mL; against E. faecalis ATCC 700221, 0.02 μM/mL; in assay [1] (setting [3]) it was 146 (146) μM/mL; against P. aeruginosa NCTC 13437, 291 (291) μM/mL. Further, the MIC in the assay on S. aureus JE2 (USA300) turned out to be 0.009 μM/mL. Also, in the assay on S. aureus JE2 (USA300) (S. aureus), the “MIC values in words” value was “nanomolar range”. Further, in the assay on A549 cells, the “IC50 against A549 cells” value was 7.5 ± 0.1 µg/mL.

For “(2-Mercaptoethanolato)(trimethylphosphine) gold (I) [Compound 27]”, the MIC was 5.7 µM with A. baumannii NCTC 13420 (A. baumannii); 6/3 with A. baumannii NCTC 13420 (setting [2]); 3 (3) μM/mL against E. cloacae NCTC 13405; 1/6 against E. coli ATCC 25922; 0.3 (0.3) μM/mL against E. faecalis ATCC 700221; 11 µg/mL in assay [1] (K. pneumoniae). Moreover, the MIC in assay [1] (setting [3]) is on record as 11 μM/mL; against P. aeruginosa NCTC 13437, 23/91; in the assay on S. aureus JE2 (USA300) it was 0.3 μM/mL. Besides, the “MBC (in brackets)” value in the assay on A. baumannii NCTC 13420 (A. baumannii NCTC 13420) is reported as 23 μM/mL; against E. cloacae NCTC 13405, 3 (3) μM/mL; with E. coli ATCC 25922 it was 11 μM/mL; against E. faecalis ATCC 700221, 0.3 (0.3) μM/mL; in assay [1] (K. pneumoniae ATCC 700603), 23 μM/mL; against P. aeruginosa NCTC 13437, 91 μM/mL. Further, the “MBC (in brackets)” value in the assay with S. aureus JE2 (USA300) stood at 0.7 μM/mL. Besides, in the assay with E. cloacae NCTC 13405 (E. cloacae), the MIC/MBC amounted to 2.9 µM. Besides, the “MIC/MBC, fold lower than / improvement over auranofin” value in the assay with E. cloacae NCTC 13405 (E. cloacae) is 65 fold. Besides, the “MIC or MIC/MBC, fold lower than auranofin” value in assay [1] (K. pneumoniae) was 34 fold. For the same substance, the activity in words entry with P. aeruginosa NCTC 13437 (P. aeruginosa) is “showed activity”. The “IC50 against A549 cells” value in the assay with A549 cells came to 12.3 ± 3.1 µg/mL.

“[2,3,4,6-Tetra-O-acetyl-α-D-glucopyranosyl (1→4)-2,3,6-tri-O-acetyl-1-thio-β-D-glucopyranosato](triethylphosphine) gold(I) [Compound 5]”: the “MBC (in brackets)” value was 33 (33) μM/mL with A. baumannii NCTC 13420 (A. baumannii NCTC 13420); 66 (66) μM/mL in the assay with E. cloacae NCTC 13405; 17 (17) μM/mL with E. coli ATCC 25922; 6 (0.1) μM/mL with E. faecalis ATCC 700221; 132 (132) μM/mL against P. aeruginosa NCTC 13437; “(0.06) μM/mL” in the assay with S. aureus JE2 (USA300). The MIC in the assay on A. baumannii NCTC 13420 (setting [2]) is given as 33 (33) μM/mL; in the assay with E. cloacae NCTC 13405, 66 (66) μM/mL; against E. coli ATCC 25922, 17 (17) μM/mL; in assay [1] (setting [3]) it was over 265 μM/mL; with P. aeruginosa NCTC 13437, 132 (132) μM/mL; with S. aureus JE2 (USA300) it was 0.008 μM/mL. For the same substance, in the assay with A549 cells, the “IC50 against A549 cells” value stood at 15.2 ± 0.3 µg/mL.

Values taken from US20210198284A1, “GOLD COMPOSITIONS AND METHODS OF USE THEREOF” (THE UNIVERSITY OF MASSACHUSETTS, priority 2018, published 2021).
